The test system of data set [1] is Escherichia coli. Put plainly: Antibacterial activity against carbapenem-resistant Escherichia coli ATCC BAA-2340 assessed as inhibition of bacterial growth incubated for 16 to 20 hrs by CLSI protocol based broth microdilution method. Type of data set: functional. To be noted: time 16-20 hrs.
The subject of data set [2] is Acinetobacter baumannii. Put plainly: Antibacterial activity against Acinetobacter baumannii NCTC 13304 (OXA-27) assessed as inhibition of bacterial growth incubated for 16 to 20 hrs by CLSI protocol based broth microdilution method. To be noted: time 16-20 hrs. Type of data set: functional.
For data set [3], the system named is Klebsiella pneumoniae. Put plainly: Antibacterial activity against carbapenem-resistant Klebsiella pneumoniae clinical isolate KPN+19-15 assessed as inhibition of bacterial growth incubated for 16 to 20 hrs by CLSI protocol based broth microdilution method. Particulars: time 16-20 hrs. It is filed as functional.
The test system of data set [4] is Escherichia coli. Put plainly: Antibacterial activity against Escherichia coli ATCC BAA-2523 assessed as inhibition of bacterial growth incubated for 16 to 20 hrs by CLSI protocol based broth microdilution method. Particulars: time 16-20 hrs. Type of data set: functional.
For data set [5], the system named is Acinetobacter baumannii. Put plainly: Antibacterial activity against carbapenem-sensitive Acinetobacter baumannii clinical isolate 19-1 assessed as inhibition of bacterial growth incubated for 16 to 20 hrs by CLSI protocol based broth microdilution method. Particulars: time 16-20 hrs. Type of data set: functional.
For data set [6], the system named is Klebsiella pneumoniae. Put plainly: Antibacterial activity against carbapenem-resistant Klebsiella pneumoniae ATCC BAA-1705 assessed as inhibition of bacterial growth incubated for 16 to 20 hrs by CLSI protocol based broth microdilution method. It is filed as functional. Particulars: time 16-20 hrs.
For data set [7], the system named is Pseudomonas aeruginosa. Put plainly: Antibacterial activity against carbapenem-resistant Pseudomonas aeruginosa clinical isolate 19-3 assessed as inhibition of bacterial growth incubated for 16 to 20 hrs by CLSI protocol based broth microdilution method. Type of data set: functional. Particulars: time 16-20 hrs.
The subject of data set [8] is Pseudomonas aeruginosa. Put plainly: Antibacterial activity against Pseudomonas aeruginosa ATCC 27853 assessed as inhibition of bacterial growth incubated for 16 to 20 hrs by CLSI protocol based broth microdilution method. It is filed as functional. Particulars: time 16-20 hrs.
Data set [9] can be described thus: Renal cytotoxicity against HK-2 cells incubated for 72 hrs by CCK8 assay. Particulars: human. Type of data set: toxicity, cell-based.

In brackets after ≈: the same amount, converted by molar mass. Bridge positions count the residues as written; N and C are the ends. Square brackets hold non-standard residues; d marks the D form. Peptide text beside a SMILES is read from it. * marks the point of attachment. Heptanoyl(6-Me) = CC(C)CCCCC(=O)*; dNle = CCCC[C@@H](N)C(=O)O; Octanoyl = CCCCCCCC(=O)*; Dab = NCC[C@H](N)C(=O)O

`CCCCCCCC(=O)N[C@@H](CCN)C(=O)N[C@H](C(=O)N[C@@H](CCN)C(=O)N[C@H]1CCNC(=O)[C@H]([C@@H](C)O)NC(=O)[C@H](CCN)NC(=O)[C@H](CCN)NC(=O)[C@H]([C@@H](C)O)NC(=O)[C@@H](CCCC)NC(=O)[C@H](CCN)NC1=O)[C@@H](C)O` (Octanoyl-[Dab]T[Dab][Dab][Dab][dNle]T[Dab][Dab]T; lactam 4-C): the MIC was 0.125 µg/mL (≈ 0.109 µM) in the data set on Escherichia coli [1]; 1 µg/mL (≈ 0.875 µM) with Acinetobacter baumannii [2]; 0.125 µg/mL (≈ 0.109 µM) in the data set on Klebsiella pneumoniae [3]; 0.125 µg/mL (≈ 0.109 µM) with Escherichia coli [4]; 1 µg/mL (≈ 0.875 µM) in the data set on Acinetobacter baumannii [5]; 2 µg/mL (≈ 1.75 µM) with Klebsiella pneumoniae [6]. Moreover, the MIC in the data set on Pseudomonas aeruginosa [7] and in the data set on Pseudomonas aeruginosa [8] was 1 µg/mL (≈ 0.875 µM) each time.

Consider `CC(C)CCCCC(=O)N[C@@H](CCN)C(=O)N[C@H](C(=O)N[C@@H](CCN)C(=O)N[C@H]1CCNC(=O)[C@H]([C@@H](C)O)NC(=O)[C@H](CCN)NC(=O)[C@H](CCN)NC(=O)[C@H]([C@@H](C)O)NC(=O)[C@@H](Cc2ccccc2)NC(=O)[C@H](CCN)NC1=O)[C@@H](C)O` ({Heptanoyl(6-Me)}-[Dab]T[Dab][Dab][Dab][dF]T[Dab][Dab]T; lactam 4-C), for which the MIC in the data set with Escherichia coli [1] is at most 0.03 µg/mL; with Acinetobacter baumannii [2] it was 0.25 µg/mL (≈ 0.212 µM); in the data set with Klebsiella pneumoniae [3] it was at most 0.03 µg/mL; with Escherichia coli [4], 0.06 µg/mL (≈ 0.051 µM); with Acinetobacter baumannii [5] it was 0.5 µg/mL (≈ 0.425 µM); in the data set with Klebsiella pneumoniae [6] it was 0.5 µg/mL (≈ 0.425 µM). Besides, the minimal inhibitory concentration (MIC) with Pseudomonas aeruginosa [7] and in the data set with Pseudomonas aeruginosa [8] was 1 µg/mL (≈ 0.849 µM) in each case.

As to `CCCCCCCC(=O)N[C@@H](CCN)C(=O)N[C@H](C(=O)N[C@@H](CCN)C(=O)N[C@H]1CCNC(=O)[C@H]([C@@H](C)O)NC(=O)[C@H](CCN)NC(=O)[C@H](CCN)NC(=O)[C@H]([C@@H](C)O)NC(=O)[C@@H](CCC)NC(=O)[C@H](CCN)NC1=O)[C@@H](C)O`, the MIC came to 0.5 µg/mL (≈ 0.443 µM) in the data set with Escherichia coli [1]; 4 µg/mL (≈ 3.54 µM) in the data set with Acinetobacter baumannii [2]; 0.5 µg/mL (≈ 0.443 µM) with Klebsiella pneumoniae [3]; 0.25 µg/mL (≈ 0.221 µM) with Escherichia coli [4]; 4 µg/mL (≈ 3.54 µM) in the data set on Acinetobacter baumannii [5]; 2 µg/mL (≈ 1.77 µM) in the data set on Klebsiella pneumoniae [6]. Further, the minimal inhibitory concentration (MIC) in the data set on Pseudomonas aeruginosa [7] and in the data set on Pseudomonas aeruginosa [8] was 1 µg/mL (≈ 0.885 µM) throughout.

With `CCCCCCCC(=O)N[C@@H](CCN)C(=O)N[C@H](C(=O)N[C@@H](CCN)C(=O)N[C@H]1CCNC(=O)[C@H]([C@@H](C)O)NC(=O)[C@H](CCN)NC(=O)[C@H](CCN)NC(=O)[C@H]([C@@H](C)O)NC(=O)[C@@H](Cc2ccccc2)NC(=O)[C@H](CCN)NC1=O)[C@@H](C)O` (Octanoyl-[Dab]T[Dab][Dab][Dab][dF]T[Dab][Dab]T; lactam 4-C) [listing 1 of 2 here], in [9], the IC50 at 72 h was over 500 µg/mL.

`CCCCCCCC(=O)N[C@@H](CCN)C(=O)N[C@H](C(=O)N[C@@H](CCN)C(=O)N[C@H]1CCNC(=O)[C@H]([C@@H](C)O)NC(=O)[C@H](CCN)NC(=O)[C@H](CCN)NC(=O)[C@H]([C@@H](C)O)NC(=O)[C@@H](CC(C)C)NC(=O)[C@H](CCN)NC1=O)[C@@H](C)O` (Octanoyl-[Dab]T[Dab][Dab][Dab][dL]T[Dab][Dab]T; lactam 4-C): the minimal inhibitory concentration (MIC) in the data set on Escherichia coli [1] turned out to be 0.06 µg/mL (≈ 0.0525 µM); with Acinetobacter baumannii [2], 1 µg/mL (≈ 0.875 µM); in the data set with Klebsiella pneumoniae [3], 0.25 µg/mL (≈ 0.219 µM); in the data set on Escherichia coli [4] it was 0.25 µg/mL (≈ 0.219 µM); in the data set on Acinetobacter baumannii [5] it was 1 µg/mL (≈ 0.875 µM); in the data set with Klebsiella pneumoniae [6], 2 µg/mL (≈ 1.75 µM). The MIC with Pseudomonas aeruginosa [7] came out at 0.5 µg/mL (≈ 0.437 µM); in the data set on Pseudomonas aeruginosa [8], 1 µg/mL (≈ 0.875 µM).

On to `CCCCCCCC(=O)N[C@@H](CCN)C(=O)N[C@H](C(=O)N[C@@H](CCN)C(=O)N[C@H]1CCNC(=O)[C@H]([C@@H](C)O)NC(=O)[C@H](CCN)NC(=O)[C@H](CCN)NC(=O)[C@H]([C@@H](C)O)NC(=O)[C@@H](Cc2ccccc2)NC(=O)[C@H](CCN)NC1=O)[C@@H](C)O` (Octanoyl-[Dab]T[Dab][Dab][Dab][dF]T[Dab][Dab]T; lactam 4-C) [listing 2 of 2 here], for which the minimal inhibitory concentration (MIC) with Escherichia coli [1] is 0.06 µg/mL (≈ 0.051 µM); with Acinetobacter baumannii [2] it was 0.25 µg/mL (≈ 0.212 µM); in the data set on Klebsiella pneumoniae [3], at most 0.03 µg/mL; with Escherichia coli [4], at most 0.03 µg/mL; in the data set with Acinetobacter baumannii [5], 0.5 µg/mL (≈ 0.425 µM); in the data set with Klebsiella pneumoniae [6] it was 0.5 µg/mL (≈ 0.425 µM). Further, the MIC in the data set on Pseudomonas aeruginosa [7] and with Pseudomonas aeruginosa [8] was 0.5 µg/mL (≈ 0.425 µM) in each case.
